Experimental data reported in patent US4543256A, “(-)-10,1L Methylenedioxy-N-N-propylnoraporphine and methods employing it for inhibiting the effects of epileptic seizures and for prevention and treatment of duodenal ulcers” (Northeastern University, priority 1982, dated 1985).
Counter-ions that a name gives are not always drawn.

System: gastric acid output
Experiment: Cysteamine induced gastric acid output
Type: in vivo, rat
Details: for INITIAL OUTPUT (gastric acid): at opening of gastric fistula, control 187 ± 20; for Gastric acid output, 1 hr: control 68 ± 17; for Gastric acid output, 6 hr: control 91 ± 12; for Gastric acid output, 7 hr: control 99 ± 10; for Gastric acid output, 5 hr: control 104 ± 18; for Gastric acid output, 4 hr: control 110 ± 25; for Gastric acid output, 3 hr: control 141 ± 32; for Gastric acid output, 2 hr: control 195 ± 48; for TOTAL OUTPUT (gastric acid): control 1043 ± 102
Experimental: (A) In addition, rats of all groups were given cysteamine HCL, 15 mg. 100
g p.o. × 1, 30 min. after (the last dose of) MDO--NPA.
(B) At the opening of gastric fistula

[1] = group 3: 0.1 mg/100 g × 1 day, 1 week
[2] = group 3: 0.1 mg/100 g × 1 day, 1 week, P < 0.01
[3] = group 3: 0.1 mg/100 g × 1 day, 1 week, P < 0.001
[4] = group 3: 0.1 mg/100 g × 1 day, 1 week, P < 0.09

SMILES: CCCN1CCc2cccc3c2[C@H]1Cc1ccc2c(c1-3)OCO2 [MDO-NPA, (-) 10, 11-methylenedioxy-N-n-propylnoraporphine-HCl]
- INITIAL OUTPUT (gastric acid) (group 2: × 1 day, P < 0.001): 47 ± 13 μ Eq
- Gastric acid output, 1 hr (group 2: × 1 day): 28 ± 18 μ Eq
- Gastric acid output, 6 hr (group 2: × 1 day, P < 0.01): 20 ± 11 μ Eq
- Gastric acid output, 7 hr (group 2: × 1 day, P < 0.001): 18 ± 6 μ Eq
- Gastric acid output, 5 hr (group 2: × 1 day, P < 0.01): 10 ± 3 μ Eq
- Gastric acid output, 4 hr (group 2: × 1 day, P < 0.09): 17 ± 8 μ Eq
- Gastric acid output, 3 hr (group 2: × 1 day): 81 ± 40 μ Eq
- Gastric acid output, 2 hr (group 2: × 1 day): 66 ± 29 μ Eq
- TOTAL OUTPUT (gastric acid) (group 2: × 1 day, P < 0.001): 288 ± 67 μ Eq
- INITIAL OUTPUT (gastric acid) [1]: 120 ± 36 μ Eq
- Gastric acid output, 1 hr [1]: 29 + 10 μ Eq
- Gastric acid output, 6 hr [2]: 18 ± 14 μ Eq
- Gastric acid output, 7 hr [3]: 9 ± 4 μ Eq
- Gastric acid output, 5 hr [2]: 17 ± 7 μ Eq
- Gastric acid output, 4 hr [2]: 14 ± 6 μ Eq
- Gastric acid output, 3 hr [4]: 36 ± 9 μ Eq
- Gastric acid output, 2 hr [4]: 66 + 21 μ Eq
- TOTAL OUTPUT (gastric acid) [3]: 306 ± 62 μ Eq
